Results from patent publication US20190240176A1, “METHODS OF TREATMENT FOR MYELOID LEUKEMIA” (The University of Georgia Research Foundation, Inc., priority 2016, published 2019).

What was measured:
K562 human BC-CML cells = assay: Colony formation assay, K562 cells; type: cell-based; settings: for leukemic colony formation: K562, Gabapentin in combination with Imatinib, 300 cells per well, scored on day 5, FIG. 14A
Protocol: BCAT1 inhibition by Gabapentin is shown in FIG. 14A, leukemic colony formation by human blast crisis CML was attenuated in combination with the tyrosine kinase inhibitor Imatinib. […] Three hundred cells were plated per well in triplicate, and colonies were scored on day 5 (error bars indicates s.e.m. *p<0.05, **p<0.01). Inhibition of leukemic colony formation by gabapentin (Gbp) and its structural analogs was also investigated (FIG. 14B). The colony-forming ability of K562 human CML cells treated with the indicated chemicals was investigated. One hundred fifty cells were plated per well in triplicate, and colonies were scored on day 14 (error bars indicates s.e.m. ***p<0.001 compared with the vehicle control).
(§1) The human BC-CML cell line K562, the human acute leukemia cell lines MV4-11 and U937 were maintained in Roswell Park Memorial Institute 1640 medium (RPMI-1640) with 10% FBS, 100 IU/ml penicillin and 100 μg/ml streptomycin. The human acute promyelocytic leukemia cell line HL60 was maintained in RPMI supplemented with 20% FBS. All human cell lines were obtained from ATCC, and cell line authentication testing was performed by ATCC-standardized STR analysis to verify their identity in July 2016. For the colony forming assays, the cells were transduced with lentiviral shRNA and plated in triplicate in 1.2% methylcellulose medium (R&D systems) supplemented with 100 IU/ml penicillin and 100 μg/ml streptomycin, 10% FBS. Where indicated, either BCAAs (L-Leucine, L-Valine, L-Isoleucine, 4 mM each, Sigma-Aldrich), L-alanyl-L-glutamine (4 mM, GlutaMax™, Life Technologies), rapamycin (50 nM, Tocris) or gabapentin (Gbp; Tokyo Chemical Industry Co.) was added to the medium. Gbp was freshly dissolved in PBS before use. Colonies were scored on days 9 to 14. […] Colonies were scored on days 7 to 10.

[1] = tested on: primary Lin- BC-CML cells; assay: Colony formation assay, primary Lin- BC-CML cells; type: cell-based; settings: primary mouse Lin- BC-CML cells plated with Gbp; FIG. 2B
Protocol: as §1

[2] = tested on: primary human BC-CML cells; assay: Colony formation assay, patient-derived primary BC-CML cells; type: cell-based; settings: patient-derived primary leukemia cells; FIGS. 3D-E, 11E-F
Protocol: (§2) Patient blood samples were obtained at the Institute of Medical Science, the University of Tokyo (IMSUT) Hospital with written informed consent according to the procedures approved by the Institutional Review Board. Mononuclear cells from the subjects were viably frozen and stored in liquid nitrogen. For in vitro colony formation with BCAT1 knockdown, primary hCD34^+ cells sorted from patient bone marrow samples were cultured in IMDM supplemented with 10% FBS, 100 IU/ml penicillin and 100 μg/ml streptomycin, 55 μM 2-mercaptoethanol, SCF, IL-3, IL-6, FLT3L and TPO. After 24 h of culture, the cells were transduced with lentiviral shRNA (cloned in FG12-UbiC-GFP), and the GFP-positive infected cells were sorted at 48 h, and 5,000-50,000 cells were plated in complete methylcellulose medium (Methocult H4435, StemCell Technologies). For the colony forming assays with Gbp, sorted hCD34^+ cells from the primary patient specimens were cultured in complete methylcellulose medium with the indicated concentrations of Gbp. Colonies were scored on days 9 to 14.

primary human AML cells = assay: Colony formation assay, primary de novo AML cells; type: cell-based; settings: FIG. 3G
Protocol: as §2

[3] = in water and in both basic and acidic aqueous solutions; cited from earlier work
[4] = tested on: human AML cell lines (MV4-11, U937, HL60); assay: Colony formation assay, human AML cell lines; type: cell-based; settings: FIG. 11G-I
Protocol: as §1

BCAT1 = target: T1, BCAT1 (Homo sapiens, UniProt P54687); settings: literature reference 7; cited from earlier work
T1 sequence (P54687 1-386): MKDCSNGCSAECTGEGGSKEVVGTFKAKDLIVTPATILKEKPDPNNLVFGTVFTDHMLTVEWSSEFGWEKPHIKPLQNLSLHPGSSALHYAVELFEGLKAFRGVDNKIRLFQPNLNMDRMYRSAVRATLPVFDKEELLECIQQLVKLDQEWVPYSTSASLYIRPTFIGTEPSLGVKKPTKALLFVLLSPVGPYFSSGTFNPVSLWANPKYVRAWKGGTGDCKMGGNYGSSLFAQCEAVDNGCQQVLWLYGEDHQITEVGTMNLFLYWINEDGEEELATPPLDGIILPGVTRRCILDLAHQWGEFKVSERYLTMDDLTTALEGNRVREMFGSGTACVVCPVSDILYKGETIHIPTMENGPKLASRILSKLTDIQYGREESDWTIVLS

BCAT2 = target: T2, BCAT2 (Homo sapiens, UniProt O15382); settings: literature reference 7; cited from earlier work
T2 sequence (O15382 28-392): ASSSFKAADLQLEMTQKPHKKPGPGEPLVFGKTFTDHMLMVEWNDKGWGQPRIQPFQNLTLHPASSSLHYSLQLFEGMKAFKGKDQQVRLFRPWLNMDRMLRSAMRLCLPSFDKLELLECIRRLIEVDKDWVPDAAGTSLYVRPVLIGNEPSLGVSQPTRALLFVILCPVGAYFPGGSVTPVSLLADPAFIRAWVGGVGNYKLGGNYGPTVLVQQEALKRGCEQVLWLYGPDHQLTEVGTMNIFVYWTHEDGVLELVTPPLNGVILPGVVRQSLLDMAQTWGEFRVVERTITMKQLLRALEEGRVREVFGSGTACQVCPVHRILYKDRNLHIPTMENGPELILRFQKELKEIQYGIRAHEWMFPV

normal HSPCs = assay: Colony formation assay, normal HSPCs (LSK cells); type: cell-based, mouse; settings: FIGS. 9E-F
Protocol: as §1

[5] = tested on: intracellular BCAAs in K562 cells; assay: Intracellular amino acid quantification in K562 cells; type: cell-based, human; settings: compared with the controls, FIGS. 12A-B
Protocol: Leukemia cells or peripheral blood samples drawn from mice bearing myeloid leukemia were used for amino acid and keto acid analysis by high-performance liquid chromatography (HPLC)-fluorescence detection, as described^32-34. In brief, two hundred thousand live leukemia cells per sample were sorted and washed twice with ice-cold PBS to remove media components prior to amino acid extraction. The blood plasma was prepared by centrifugation of the peripheral blood samples at 2,000×g at 4° C. for 10 min. […] For amino acid quantification, the dried samples were treated with the amine-reactive 4-fluoro-7-nitro-2,1,3-benzoxadizole (NBD-F) to derivatize the amino acids. […] The gradient conditions were as follows: t=0 min, 10% B; t=20 min, 50% B; and t=30 min, 100% B. For NBD-Asn, Ser, Thr, Gln and Phe analysis, 25 mM citrate buffer containing 25 mM sodium perchlorate (pH 4.4) was used as the mobile phase A. NBD-amino acids were detected with excitation and emission wavelengths of 470 and 530 nm, respectively. For keto acid quantification, dried samples were treated with o-phenylenediamine (OPD) to derivatize alpha-keto acids, followed by liquid-liquid extraction with ethyl acetate. […] The fluorescence detection was carried out at the emission wavelength of 410 nm with excitation of 350 nm.

[6] = tested on: S6 kinase (pS6K), a downstream target of mTORC1 kinase; assay: Western blotting for phospho-S6 kinase in K562 cells; type: cell-based, human; settings: shBCAT1-d or 20 mM Gbp for 24 h, FIG. 3J

In the case of `Cc1ccc(NC(=O)c2ccc(CN3CCN(C)CC3)cc2)cc1Nc1nccc(-c2cccnc2)n1` [Imatinib], the leukemic colony formation (K562 human BC-CML cells) is reported as “attenuated”.
With `NCC1(CC(=O)O)CCCCC1` [Gbp, 1-(aminomethyl)cyclohexane acetic acid] the clonogenic growth [1] was “dose-dependent impairment”, the colony size [1] was “formed smaller colonies” and the colony-forming ability [2] was “markedly inhibited”. For the same compound, the clonal growth (primary human AML cells) was “effectively inhibited”, the solubility [3] was “freely soluble” and the leukemic colony formation (K562 human BC-CML cells) was “attenuated”. The colony-forming ability (K562 human BC-CML cells; K562 human BC-CML, FIG. 11A-D) was “markedly inhibited”, the clonal growth [4] was “effectively inhibited” and the “inhibition of the transaminase activity of BCAT1” value (BCAT1) was “specifically and competitively inhibit”. For the same compound, the “inhibition of the transaminase activity of BCAT2” value (BCAT2) was “but not that of BCAT2”, the “colony-forming ability of normal HSPCs” value (normal HSPCs) was “only minimally affected” and the “intracellular concentrations of all three BCAAs” value [5] was “significantly reduced”. For the same compound, the “phosphorylation of S6 kinase (pS6K)” value [6] was “significantly reduced”.
